According to article PMC3391414 (Journal of Agricultural and Food Chemistry, 2011):
Entries after “also recorded” stand apart in the source; their conditions may differ.

Tests used:
UGT1A10 = target: T1, UGT1A10 (Homo sapiens, UniProt Q9HAW8); experiment: Glucuronidation by recombinant human UGT1A10; conditions: UGT1A10, substrate 10 μM
T1 sequence (Q9HAW8 26-530): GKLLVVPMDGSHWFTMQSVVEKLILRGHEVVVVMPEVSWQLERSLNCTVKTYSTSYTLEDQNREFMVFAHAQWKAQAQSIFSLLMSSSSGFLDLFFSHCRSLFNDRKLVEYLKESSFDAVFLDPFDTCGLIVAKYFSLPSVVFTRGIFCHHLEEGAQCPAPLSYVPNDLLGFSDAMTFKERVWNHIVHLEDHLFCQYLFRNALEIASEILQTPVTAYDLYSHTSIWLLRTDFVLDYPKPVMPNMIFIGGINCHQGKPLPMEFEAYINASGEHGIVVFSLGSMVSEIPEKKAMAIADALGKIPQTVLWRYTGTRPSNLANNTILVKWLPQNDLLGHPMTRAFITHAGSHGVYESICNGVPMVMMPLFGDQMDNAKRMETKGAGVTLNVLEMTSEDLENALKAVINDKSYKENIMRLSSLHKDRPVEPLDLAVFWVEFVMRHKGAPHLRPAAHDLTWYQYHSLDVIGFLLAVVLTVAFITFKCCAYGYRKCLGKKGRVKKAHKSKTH

UGT1A6 = target: T2, UGT1A6 (Homo sapiens, UniProt P19224); experiment: Glucuronidation by recombinant human UGT1A6; conditions: UGT1A6, substrate 10 μM
T2 sequence (P19224 27-532): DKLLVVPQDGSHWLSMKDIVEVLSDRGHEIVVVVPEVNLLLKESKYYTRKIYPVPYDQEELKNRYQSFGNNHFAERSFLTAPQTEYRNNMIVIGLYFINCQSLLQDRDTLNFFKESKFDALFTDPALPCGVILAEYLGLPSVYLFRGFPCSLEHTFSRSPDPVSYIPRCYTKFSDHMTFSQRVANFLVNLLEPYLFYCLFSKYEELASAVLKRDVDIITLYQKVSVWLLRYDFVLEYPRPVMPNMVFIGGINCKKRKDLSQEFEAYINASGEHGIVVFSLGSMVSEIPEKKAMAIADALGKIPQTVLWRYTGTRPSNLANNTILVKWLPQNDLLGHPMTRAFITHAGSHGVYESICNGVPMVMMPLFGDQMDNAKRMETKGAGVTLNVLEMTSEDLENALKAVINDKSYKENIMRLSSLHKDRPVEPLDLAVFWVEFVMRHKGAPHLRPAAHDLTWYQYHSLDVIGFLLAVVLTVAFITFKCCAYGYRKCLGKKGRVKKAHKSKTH

UGT1A7 = target: T3, UGT1A7 (Homo sapiens, UniProt Q9HAW7); experiment: Glucuronidation by recombinant human UGT1A7; conditions: UGT1A7, substrate 10 μM
T3 sequence (Q9HAW7 26-530): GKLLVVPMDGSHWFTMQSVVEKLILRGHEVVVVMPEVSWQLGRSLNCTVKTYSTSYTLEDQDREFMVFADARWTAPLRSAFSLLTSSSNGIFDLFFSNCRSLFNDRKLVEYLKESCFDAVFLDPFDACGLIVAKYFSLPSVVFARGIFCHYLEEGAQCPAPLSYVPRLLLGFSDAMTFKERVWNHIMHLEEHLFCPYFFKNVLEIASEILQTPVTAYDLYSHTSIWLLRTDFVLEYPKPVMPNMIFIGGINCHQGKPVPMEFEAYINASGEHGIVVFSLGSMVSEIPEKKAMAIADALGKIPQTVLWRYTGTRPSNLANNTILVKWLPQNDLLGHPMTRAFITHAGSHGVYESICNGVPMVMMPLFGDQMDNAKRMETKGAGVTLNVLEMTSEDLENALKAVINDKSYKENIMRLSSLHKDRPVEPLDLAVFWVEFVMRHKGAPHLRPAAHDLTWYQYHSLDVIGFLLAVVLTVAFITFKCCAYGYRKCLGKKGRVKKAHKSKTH

[1] = cited from earlier work
UGT1A1 = target: T4, UGT1A1 (Homo sapiens, UniProt P22309); experiment: Glucuronidation by recombinant human UGT1A1
T4 sequence (P22309 26-533): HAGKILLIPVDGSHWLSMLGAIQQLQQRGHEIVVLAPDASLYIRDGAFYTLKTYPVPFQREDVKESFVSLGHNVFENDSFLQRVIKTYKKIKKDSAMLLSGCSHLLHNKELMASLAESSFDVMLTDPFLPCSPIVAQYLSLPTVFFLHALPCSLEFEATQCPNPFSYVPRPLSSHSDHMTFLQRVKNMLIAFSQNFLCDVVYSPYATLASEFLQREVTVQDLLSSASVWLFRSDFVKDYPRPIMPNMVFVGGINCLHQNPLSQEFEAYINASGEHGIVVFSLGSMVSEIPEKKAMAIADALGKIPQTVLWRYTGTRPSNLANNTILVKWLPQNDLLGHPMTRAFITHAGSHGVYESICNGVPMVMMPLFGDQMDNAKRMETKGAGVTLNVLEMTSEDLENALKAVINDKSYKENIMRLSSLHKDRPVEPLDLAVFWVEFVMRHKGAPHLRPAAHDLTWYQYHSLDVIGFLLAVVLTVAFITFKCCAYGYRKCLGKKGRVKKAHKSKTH

UGT2B7 = target: T5, UGT2B7 (Homo sapiens, UniProt P16662); experiment: Glucuronidation by recombinant human UGT2B7; conditions: UGT2B7, substrate 10 μM
T5 sequence (P16662 24-529): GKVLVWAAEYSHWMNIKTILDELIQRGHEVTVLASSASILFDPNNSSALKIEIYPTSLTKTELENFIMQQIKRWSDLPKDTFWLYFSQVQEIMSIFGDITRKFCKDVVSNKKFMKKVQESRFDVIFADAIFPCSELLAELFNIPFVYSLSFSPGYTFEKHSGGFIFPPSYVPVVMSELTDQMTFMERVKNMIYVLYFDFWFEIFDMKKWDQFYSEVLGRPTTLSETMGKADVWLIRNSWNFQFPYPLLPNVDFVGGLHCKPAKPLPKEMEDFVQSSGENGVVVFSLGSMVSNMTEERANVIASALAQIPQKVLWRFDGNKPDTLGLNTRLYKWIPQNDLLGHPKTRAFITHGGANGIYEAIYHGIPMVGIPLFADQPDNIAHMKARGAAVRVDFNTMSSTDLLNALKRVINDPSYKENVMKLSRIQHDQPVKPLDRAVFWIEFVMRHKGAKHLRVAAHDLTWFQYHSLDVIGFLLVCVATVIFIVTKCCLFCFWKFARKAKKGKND

Compound | Hydroxyl positions glucuronidated (UGT1A10) | Hydroxyl positions glucuronidated (UGT1A6) | Hydroxyl positions glucuronidated (UGT1A7) | Predominant form in plasma ([1]; after oral intake in human) | Degree of regiospecificity (major glucuronide in bracket) (UGT1A1; UGT1A1, substrate 2.5 μM) | Degree of regiospecificity (major glucuronide in bracket) (UGT1A1; UGT1A1, substrate 2.5 μM, listed as 5,7,4’THFnol) | Degree of regiospecificity (major glucuronide in bracket) (UGT1A1; UGT1A1, substrate 10 μM) | Hydroxyl positions glucuronidated (UGT1A1; UGT1A1, substrate 10 μM) | Degree of regiospecificity (major glucuronide in bracket) (UGT1A1; UGT1A1, substrate 10 μM, listed as 5,7,4’THFnol) | Degree of regiospecificity (3-O vs 7-O) (UGT1A1; UGT1A1, substrate 35 μM) | Hydroxyl positions glucuronidated (UGT2B7) | Glucuronide predominantly formed ([1]; human volunteers)
O=c1c(O)c(-c2ccc(O)cc2)oc2cc(O)cc(O)c12 [5,7,4'THFnol, 3,5,7,4’-tetrahydroxyflavone] | glucuronidated 3-O, 7-O and 4’-O | glucuronidated only 7-O and 4’-O | glucuronidated 3-O, 7-O and 4’-O | 3-O-glucuronide of kaempferol was found to be the predominant form in plasma | Weak (7-O) | weakly preferred the glucuronidation of 7-O position | No (3-O, 7-O) | glucuronidated 3-O, 7-O and 4’-O | no regiospecific preference between 3-O and 7-O; also recorded: no regiospecificity | no regiospecificity | glucuronidated only 7-O and 4’-O | –
O=c1cc(-c2ccccc2)oc2cc(O)cc(O)c12 [5,7DHF, 5,7-dihydroxyflavone] | – | – | – | – | – | – | – | – | – | – | – | predominantly form 7-O-glucuronide
